Literature values, collected in the CATMoS acute toxicity set (Mansouri et al. 2021).
“And” between values parts separate entries of the source, which are not always exact repeats. Equal entries are not always repeated.

assay: rat acute oral toxicity; settings: in vivo

SMILES	LD50
CN(C)CC[C@@H](c1ccc(Br)cc1)c1ccccn1	191 mg/kg
CCCCCOC(CBr)c1ccc(C2CCCC2)cc1 (stereo not given)	250 mg/kg
CCC(=O)OCC(=O)[C@@]1(OC(=O)CC)[C@H](C)C[C@H]2[C@H]3[C@H]([C@@H](O)C[C@@]21C)[C@@]1(C)C=CC(=O)C=C1C[C@H]3Cl	3590 mg/kg
CC1(C)CNC(=NN=C(/C=C/c2ccc(C(F)(F)F)cc2)/C=C/c2ccc(C(F)(F)F)cc2)NC1	1130 mg/kg
CN(C)C(=O)Nc1ccc(SC(F)(F)Cl)c(Cl)c1	336 mg/kg
CC(=O)OC(C)(C)Cc1ccccc1	3300 mg/kg
COP(=O)(OC)OC1=C(Cl)C2C=CCC12 (stereo not given)	96 mg/kg
CCOCOC(=O)c1ccccc1Nc1c(Cl)ccc(C)c1Cl	307 mg/kg
CCN(CC)CCN1C(=O)CN=C(c2ccccc2F)c2cc(Cl)ccc21	879 mg/kg and 980 mg/kg and 978 mg/kg
CC(C)C(=O)N(C)C(=O)Oc1cccc(C(C)C)c1	631 mg/kg
CCCCCCCl	7000 mg/kg
C=CC(=O)NC(C)C	375 mg/kg
C=C(Cl)C#N	25 mg/kg
O=C(O)c1ccccc1Nc1cccc(Cl)c1CO	2400 mg/kg
CCOC(=O)C=[N+]=[N-]	400 mg/kg
CC(O)CN(CC(C)O)CC(C)O (stereo not given)	4730 mg/kg
COP(=S)(OC)Oc1cc(C)c(SC)c(C)c1	1000 mg/kg
CCCCC(CC)COC(=O)COc1cc(Cl)c(Cl)cc1Cl (stereo not given)	500 mg/kg
CNC(=O)Oc1cccc2ccc(C)nc12	120 mg/kg
CON=CC1=CCCN(OC(=O)Nc2ccc(Cl)cc2)C1	500 mg/kg
O=CC(Cl)(Cl)Cl	480 mg/kg
CCCCCCC(=O)OCCOCCOCCOCCOC(=O)CCCCCC	25000 mg/kg
CCCCCCCCCCCC(=O)OCCSC#N	500 mg/kg
CCOCC(=O)Nc1ccc(C(=O)c2ccccc2)cc1C	2280 mg/kg
C1CS1	178 mg/kg
CNC(=O)Oc1c(C(C)C)ccc(C)c1N(C)C	67 mg/kg
C=CCN(C1=NCCN1)c1c(Cl)cccc1Cl	500 mg/kg and 233 mg/kg

SMILES	LD50
CCCC(C)C(=O)O (stereo not given)	2040 mg/kg
C#CCBr	53 mg/kg
CCNC1=Nc2ccc(Cl)cc2C(C)(c2ccccc2)O1 (stereo not given)	1500 mg/kg
C=COC=O	2820 mg/kg
CCCOP(=O)(OC=C(Cl)Cl)OCCCl (stereo not given)	25 mg/kg
CCN(CC)CCCN(c1ccccc1)C1Cc2ccccc2C1	525 mg/kg
CNC(=O)OCc1cccc(COC(=O)NC)n1	1230 mg/kg
CN(C)CCN1C(=O)c2ccccc2N(C)c2ccccc21	220 mg/kg
OC[C@H]1O[C@@H](n2cnc3c(S)ncnc32)[C@H](O)[C@@H]1O	900 mg/kg
COC1CCC=CO1 (stereo not given)	1410 mg/kg
CCCCCCCC=O	5630 mg/kg
Cc1ccc(OC(=O)c2ccccc2)cc1	2640 mg/kg
CN(C)N=Nc1ccccc1	310 mg/kg
O=NN1CCCCCC1	336 mg/kg
CCN(CC)C(C)C(=O)c1ccc(NS(C)(=O)=O)cc1 (stereo not given)	2350 mg/kg
c1ccc(C2CC(N3CCCC3)CC(c3ccccc3)C2c2ccccn2)cc1 (stereo not given)	479 mg/kg
COC(=O)CC(=O)OC	5330 mg/kg
O=C(O)c1ccccc1-c1ccccc1CO	6500 mg/kg
CCN(CC)C(C)CN1c2ccccc2Sc2ccccc21 (stereo not given)	1700 mg/kg
CCC(=O)Nc1cccc(OC(=O)NC)c1	1000 mg/kg
Cc1c(COC(=O)[C@@H]2[C@H](/C=C(\Cl)C(F)(F)F)C2(C)C)cccc1-c1ccccc1 (racemic)	54.5 mg/kg
CCCCC(CC)CNc1ccccc1 (stereo not given)	2410 mg/kg
CCS(=O)CC(C)SP(=O)(OC)OC (stereo not given)	89 mg/kg
CN1CCN=C(c2ccccc2)c2cc(Cl)ccc21	900 mg/kg
N/C(CNc1ccc(Cl)cc1)=N/O	450 mg/kg
C=Cc1ccc(OCC2CO2)cc1 (stereo not given)	1000 mg/kg
CNC(C)C#N (stereo not given)	48 mg/kg

SMILES	LD50
FC(F)(F)c1nc2c(Br)c(Cl)c(Cl)cc2[nH]1	2.21 mg/kg
CN(C)C(=O)Nc1cc(C(C)(C)C)on1	630 mg/kg
CCC(COCC1CO1)(COCC1CO1)COCC1CO1 (stereo not given)	3400 mg/kg
Clc1cccc(Cl)c1Nc1ncccn1	4720 mg/kg
CCOP(=S)(OCC)Oc1cc2ccccc2oc1=O	13 mg/kg
CN(C)[SiH](N(C)C)N(C)C	594 mg/kg
Clc1ccc(SCOC(Cn2ccnc2)c2ccc(Cl)cc2Cl)cc1 (stereo not given)	3850 mg/kg
O=S(=O)(O)c1cc(Cl)ccc1C=Cc1ccc(-n2nc3ccc4c(S(=O)(=O)O)cccc4c3n2)cc1S(=O)(=O)O	19900 mg/kg
CC1=CCC(=O)O1	3900 mg/kg
CCCCSP(=O)(N(C)C)N(C)C	208 mg/kg
NNc1nnc(NN)c2ccccc12	350 mg/kg and 400 mg/kg
O=C(O)C1=CC(=CC=[N+]2C(C(=O)O)=Cc3cc(O)c(O)cc32)CC(C(=O)[O-])N1 (stereo not given)	3140 mg/kg
CN(C)N=Nc1ccc([N+](=O)[O-])cc1	1660 mg/kg
ClCC(Br)CBr (stereo not given)	170 mg/kg
CCCOC(C(=O)OC1CCN(C)CC1)(c1ccccc1)c1ccccc1	2250 mg/kg
CC[N+](CC)(CC)CCC(O)(c1ccccc1)C1CCCCC1 (stereo not given)	1100 mg/kg
CC(O)CF (stereo not given)	3260 mg/kg
O=C1C=CC(=O)N1c1cccc(N2C(=O)C=CC2=O)c1	1370 mg/kg
CC(C)CCCCCCCCCCOC(=O)c1ccccc1C(=O)OCCCCCCCCCCC(C)C	31400 mg/kg
CC(Br)(CCl)CBr (stereo not given)	780 mg/kg
CC(CO)CCO (stereo not given)	5460 mg/kg
Cc1cc(C(=O)c2ccccc2)ccc1N=Cc1ccc(OCCC(C)C)cc1	1500 mg/kg
CN(C)c1ccc(C(O)(c2ccc(N(C)C)cc2)c2ccc(N(C)C)cc2)cc1	770 mg/kg
C=CC[N+](C)(C)CC=C	3000 mg/kg
CS(=O)C(C)(C)C(N)=O (stereo not given)	16000 mg/kg
COCNC(=O)CSP(=S)(OC)OC	600 mg/kg
N#CCNCC#N	710 mg/kg

SMILES	LD50
CC(C(=O)O)c1ccc2c(c1)[nH]c1ccc(Cl)cc12 (stereo not given)	74 mg/kg
CCOC(=O)CCC(=O)OCC	8530 mg/kg
COC(=O)c1ccccc1C(=O)c1ccc(OCCN2CCCCC2)cc1	3600 mg/kg
CCCCCCCCCCCCCCCCCC(=O)NCCC[N+](C)(C)CCO	8100 mg/kg
CCCCCCCCCCCCCCCCCCP(=O)(OC)OC	15400 mg/kg
CNC(=O)Oc1ccccc1C1SCCS1	90 mg/kg
Cc1nc2sccn2c1/C=N/NC(=O)CN(C)C	1500 mg/kg
CCN(CCCCOC(=O)c1ccc(OC)c(OC)c1)C(C)Cc1ccc(OC)cc1 (stereo not given)	1540 mg/kg
CCC(O)C(c1ccccc1)N1CCN(CCOc2ccccc2C)CC1 (stereo not given)	700 mg/kg
Oc1cccc(Oc2ccccc2)c1	1210 mg/kg
N/C(=N\c1c([N+](=O)[O-])cnc2ccccc12)N1CCOCC1	4000 mg/kg
CC(C)CC(CC(C)C)OCCOCCO	8680 mg/kg
C=CCC1(C(C)CC)C(=O)NC(=O)NC1=O (stereo not given)	57.5 mg/kg
Cc1ccc(Cc2ccc(C)cc2)cc1	3800 mg/kg and 1700 mg/kg
O=C(O)CNC(=O)c1ccc(Cl)cc1	2230 mg/kg
FC(F)(F)c1nc2c(Cl)c(Cl)c(Cl)cc2[nH]1	1.52 mg/kg
OC(CCl)CNCCNCC(O)CCl (stereo not given)	1000 mg/kg
O=C=NCCCCCCNC(=O)N(CCCCCCN=C=O)C(=O)NCCCCCCN=C=O	19800 mg/kg
CCC(=O)O[C@@H]1CC(=O)O[C@H](C)C/C=C/C=C/[C@H](O)[C@H](C)C[C@H](CC=O)[C@H](O[C@@H]2O[C@H](C)[C@@H](O[C@H]3C[C@@](C)(O)[C@@H](OC(=O)CC)[C@H](C)O3)[C@H](N(C)C)[C@H]2O)[C@H]1OC	9600 mg/kg
CCN(C(C)=O)c1c(I)cc(I)c(OCCOC(C)C(=O)O)c1I (stereo not given)	1600 mg/kg
S=c1[nH]cnc2[nH]cnc12	277 mg/kg
CCOP(=O)(OCC)Oc1ccc([N+](=O)[O-])cc1	1.8 mg/kg
CCOC(=O)C1=CNC2CCCC(C)N2C1=O (stereo not given)	2500 mg/kg
CCCCN(C)N=O	130 mg/kg
